Experimental data as given in US7125990B2, “Imidazolyl derivatives as corticotropin releasing factor inhibitors” (Bristol-Myers Squibb COmpany, priority 2001, dated 2006).

Biological target: T1, CRF1 receptors (Homo sapiens, UniProt P34998)
T1 construct: endogenous in cells; host or cells: IMR-32 cells, transformed with 2.5 µM 5'-bromo-2'-deoxyuridine for 10 days; membrane preparation
T1 sequence (P34998 24-415): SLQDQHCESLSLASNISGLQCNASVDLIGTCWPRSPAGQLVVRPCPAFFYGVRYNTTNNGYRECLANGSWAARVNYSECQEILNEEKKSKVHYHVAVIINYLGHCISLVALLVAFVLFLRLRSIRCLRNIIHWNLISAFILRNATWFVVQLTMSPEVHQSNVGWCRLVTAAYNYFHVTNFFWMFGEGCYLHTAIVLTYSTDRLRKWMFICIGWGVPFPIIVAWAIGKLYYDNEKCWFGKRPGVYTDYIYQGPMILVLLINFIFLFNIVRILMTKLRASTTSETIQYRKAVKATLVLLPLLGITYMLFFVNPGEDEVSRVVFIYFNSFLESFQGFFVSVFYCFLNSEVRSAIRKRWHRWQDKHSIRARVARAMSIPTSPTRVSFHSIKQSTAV
Assay: CRF1 receptor radioligand binding assay ([125I]-oCRF competition, IMR-32 cell membranes)
Details: IMR-32 cell membranes, [125I]-oCRF 100 pM; read-out: Ki (CRF-1R)
In short: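 Buffer: Tris pH 7.2 with MgCl2, BSA, Triton X-100, aprotinin, leupeptin; reaction stopped with ice-cold wash and filtered. Nonspecific binding set with 10 μM oCRF.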

| Structure (SMILES) | Ki |
| --- | --- |
| CCCN(Cc1c(C(F)(F)F)nc2n(-c3c(C)cc(C)cc3C)c3ccccc3n12)CC(F)(F)F [Example 159, Propyl-(2,2,2-trifluoro-ethyl)-[2-trifluoromethyl-8-(2,4,6-trimethyl-phenyl)-8H-1,3a,8-triaza-cyclopenta[α]inden-3-ylmethyl]-amine] | < 100 nM |
| C=CCN(CC=C)Cc1c(C(F)(F)F)nc2n(-c3c(C)cc(C)cc3C)c3ccccc3n12 [Example 160, Diallyl-[2-trifluoromethyl-8-(2,4,6-trimethyl-phenyl)-8H-1,3a,8-triaza-cyclopenta[α]inden-3-ylmethyl]-amine] | < 1000 nM |
| CCCN(CCc1ccccc1)Cc1c(C(F)(F)F)nc2n(-c3c(C)cc(C)cc3C)c3ccccc3n12 [Example 161, Phenethyl-propyl-[2-trifluoromethyl-8-(2,4,6-trimethyl-phenyl)-8H-1,3a,8-triaza-cyclopenta[α]inden-3-ylmethyl]-amine] | < 1000 nM |
| CCN(CCc1ccccc1)Cc1c(C(F)(F)F)nc2n(-c3c(C)cc(C)cc3C)c3ccccc3n12 [Example 163, Ethyl-phenethyl-[2-trifluoromethyl-8-(2,4,6-trimethyl-phenyl)-8H-1,3a,8-triaza-cyclopenta[α]inden-3-ylmethyl]-amine] | < 1000 nM |
| CCCN(CCC1CC1)Cc1c(C(F)(F)F)nc2n(-c3c(C)cc(C)cc3C)c3ccccc3n12 [Example 164, (2-Cyclopropyl-ethyl)-propyl-[2-trifluoromethyl-8-(2,4,6-trimethyl-phenyl)-8H-1,3a,8-triaza-cyclopenta[α]inden-3-ylmethyl]-amine] | < 1000 nM |
| Cc1cc(C)c(-n2c3ccccc3n3c(CN(CCC4CC4)CCC(F)(F)F)c(C(F)(F)F)nc23)c(C)c1 [Example 166, (2-Cyclopropyl-ethyl)-[2-trifluoromethyl-8-(2,4,6-trimethyl-phenyl)-8H-1,3a,8-triaza-cyclopenta[α]inden-3-ylmethyl]-(3,3,3-trifluoro-propyl)-amine] | < 1000 nM |
| Cc1cc(C)c(-n2c3ccccc3n3c(CN(C)Cc4ccccc4)c(C(F)(F)F)nc23)c(C)c1 [Example 167, Benzyl-methyl-[2-trifluoromethyl-8-(2,4,6-trimethyl-phenyl)-8H-1,3a,8-triaza-cyclopenta[α]inden-3-ylmethyl]-amine] | < 1000 nM |
| Cc1cc(C)c(-n2c3ccccc3n3c(CN(CCC4CC4)CC(F)(F)F)c(C(F)(F)F)nc23)c(C)c1 [Example 169, (2-Cyclopropyl-ethyl)-(2,2,2-trifluoro-ethyl)-[2-trifluoromethyl-8-(2,4,6-trimethyl-phenyl)-8H-1,3a,8-triaza-cyclopenta[α]inden-3-ylmethyl]-amine] | < 1000 nM |
| CCCCN(CC)Cc1c(C(F)(F)F)nc2n(-c3c(C)cc(C)cc3C)c3ccccc3n12 [Example 170, Butyl-ethyl-[2-trifluoromethyl-8-(2,4,6-trimethyl-phenyl)-8H-1,3a,8-triaza-cyclopenta[α]inden-3-ylmethyl]-amine] | < 1000 nM |
| Cc1cc(C)c(-n2c3ccccc3n3c(CN(CCc4ccccc4)CC(F)(F)F)c(C(F)(F)F)nc23)c(C)c1 [Example 171, Phenethyl-(2,2,2-trifluoro-ethyl)-[2-trifluoromethyl-8-(2,4,6-trimethyl-phenyl)-8H-1,3a,8-triaza-cyclopenta[α]inden-3-ylmethyl]-amine] | < 1000 nM |
| CCN(CCC1CC1)Cc1c(C(F)(F)F)nc2n(-c3c(C)cc(C)cc3C)c3ccccc3n12 [Example 172, (2-Cyclopropyl-ethyl)-ethyl-[2-trifluoromethyl-8-(2,4,6-trimethyl-phenyl)-8H-1,3a,8-triaza-cyclopenta[α]inden-3-ylmethyl]-amine] | < 10000 nM |
| CCN(Cc1ccccc1)Cc1c(C(F)(F)F)nc2n(-c3c(C)cc(C)cc3C)c3ccccc3n12 [Example 173, Benzyl-ethyl-[2-trifluoromethyl-8-(2,4,6-trimethyl-phenyl)-8H-1,3a,8-triaza-cyclopenta[α]inden-3-ylmethyl]-amine] | < 10000 nM |
| CCN(CCc1ccccc1)Cc1c(C(F)(F)F)nc2n(-c3c(C)cc(C)cc3C)c3ccccc3n12 [Example 174, Ethyl-phenethyl-[2-trifluoromethyl-8-(2,4,6-trimethyl-phenyl)-8H-1,3a,8-triaza-cyclopenta[α]inden-3-ylmethyl]-amine] | < 10000 nM |
| CCCN(Cc1ccccc1)Cc1c(C(F)(F)F)nc2n(-c3c(C)cc(C)cc3C)c3ccccc3n12 [Example 175, Benzyl-propyl-[2-trifluoromethyl-8-(2,4,6-trimethyl-phenyl)-8H-1,3a,8-triaza-cyclopenta[α]inden-3-ylmethyl]-amine] | < 10000 nM |

The remaining lines, values ahead:

| Ki | Structure (SMILES) |
| --- | --- |
| < 10000 nM | CCCCN(Cc1ccccc1)Cc1c(C(F)(F)F)nc2n(-c3c(C)cc(C)cc3C)c3ccccc3n12 [Example 176, Benzyl-butyl-[2-trifluoromethyl-8-(2,4,6-trimethyl-phenyl)-8H-1,3a,8-triaza-cyclopenta[α]inden-3-ylmethyl]-amine] |
| < 1000 nM | FC(F)(F)c1nc2n(-c3ccc(Cl)cc3Cl)c3ccccc3n2c1CN(CC1CC1)CC1CC1 [Example 177, Bis-cyclopropylmethyl-[8-(2,4-dichloro-phenyl)-2-trifluoromethyl-8H-1,3a,8-triaza-cyclopenta[α]inden-3-ylmethyl]-amine] |
| < 1000 nM | CCCN(Cc1c(C(F)(F)F)nc2n(-c3ccc(Cl)cc3Cl)c3ccccc3n12)CC1CC1 [Example 178, Cyclopropylmethyl-[8-(2,4-dichloro-phenyl)-2-trifluoromethyl-8H-1,3a,8-triaza-cyclopenta[α]inden-3-ylmethyl]-propyl-amine] |
| < 1000 nM | FC(F)(F)CN(Cc1c(C(F)(F)F)nc2n(-c3ccc(Cl)cc3Cl)c3ccccc3n12)CC1CC1 [Example 179, Cyclopropylmethyl-[8-(2,4-dichloro-phenyl)-2-trifluoromethyl-8H-1,3a,8-triaza-cyclopenta[α]inden-3-ylmethyl]-(2,2,2-trifluoro-ethyl)-amine] |
| < 10000 nM | FC(F)(F)CCN(Cc1c(C(F)(F)F)nc2n(-c3ccc(Cl)cc3Cl)c3ccccc3n12)CC1CC1 [Example 180, Cyclopropylmethyl-[8-(2,4-dichloro-phenyl)-2-trifluoromethyl-8H-1,3a,8-triaza-cyclopenta[α]inden-3-ylmethyl]-(3,3,3-trifluoro-propyl)-amine] |
| < 10000 nM | CCN(Cc1c(C(F)(F)F)nc2n(-c3ccc(Cl)cc3Cl)c3ccccc3n12)CC1CC1 [Example 181, Cyclopropylmethyl-[8-(2,4-dichloro-phenyl)-2-trifluoromethyl-8H-1,3a,8-triaza-cyclopenta[α]inden-3-ylmethyl]-ethyl-amine] |
| < 10000 nM | CCCN(CCc1ccccc1)Cc1c(C(F)(F)F)nc2n(-c3ccc(Cl)cc3Cl)c3ccccc3n12 [Example 182, [8-(2,4-Dichloro-phenyl)-2-trifluoromethyl-8H-1,3a,8-triaza-cyclopenta[α]inden-3-ylmethyl]-phenethyl-propyl-amine] |
| < 10000 nM | FC(F)(F)c1nc2n(-c3ccc(Cl)cc3Cl)c3ccccc3n2c1CN(CC1CC1)CC(F)(F)C(F)(F)F [Example 183, Cyclopropylmethyl-[8-(2,4-dichloro-phenyl)-2-trifluoromethyl-8H-1,3a,8-triaza-cyclopenta[α]inden-3-ylmethyl]-(2,2,3,3,3-pentafluoro-propyl)-amine] |
| < 10000 nM | C=CCN(CC=C)Cc1c(C(F)(F)F)nc2n(-c3ccc(Cl)cc3Cl)c3ccccc3n12 [Example 184, Diallyl-[8-(2,4-dichloro-phenyl)-2-trifluoromethyl-8H-1,3a,8-triaza-cyclopenta[α]inden-3-ylmethyl]-amine] |
| < 10000 nM | FC(F)(F)CN(Cc1c(C(F)(F)F)nc2n(-c3ccc(Cl)cc3Cl)c3ccccc3n12)CC1CCC1 [Example 185, Cyclobutylmethyl-[8-(2,4-dichloro-phenyl)-2-trifluoromethyl-8H-1,3a,8-triaza-cyclopenta[α]inden-3-ylmethyl]-(2,2,2-trifluoro-ethyl)-amine] |
| < 10000 nM | CCCN(Cc1c(C(F)(F)F)nc2n(-c3ccc(Cl)cc3Cl)c3ccccc3n12)CC1CCC1 [Example 186, Cyclobutylmethyl-[8-(2,4-dichloro-phenyl)-2-trifluoromethyl-8H-1,3a,8-triaza-cyclopenta[α]inden-3-ylmethyl]-propyl-amine] |
| < 100 nM | CC(C)c1ccc(-n2c3ccccc3n3c(CN(CC4CC4)CC4CC4)c(C(F)(F)F)nc23)c(Br)c1 [Example 187, [8-(2-Bromo-4-isopropyl-phenyl)-2-trifluoromethyl-8H-1,3a,8-triaza-cyclopenta[α]inden-3-ylmethyl]-bis-cyclopropylmethyl-amine] |
| < 100 nM | CC(C)c1ccc(-n2c3ccccc3n3c(CN(CC4CC4)CC(F)(F)F)c(C(F)(F)F)nc23)c(Br)c1 [Example 188, [8-(2-Bromo-4-isopropyl-phenyl)-2-trifluoromethyl-8H-1,3a,8-triaza-cyclopenta[α]inden-3-ylmethyl]-cyclopropylmethyl-(2,2,2-trifluoro-ethyl)-amine] |
| < 1000 nM | CC(C)c1ccc(-n2c3ccccc3n3c(CN(CCC(F)(F)F)CC4CC4)c(C(F)(F)F)nc23)c(Br)c1 [Example 189, [8-(2-Bromo-4-isopropyl-phenyl)-2-trifluoromethyl-8H-1,3a,8-triaza-cyclopenta[α]inden-3-ylmethyl]-cyclopropylmethyl-(3,3,3-trifluoro-propyl)-amine] |
